“And” between values parts separate entries of the source, which are not always exact repeats. Equal entries are not always repeated.
Key:
[1] = system: HIV-1; assay: Plasma HIV-1 RNA by transcription mediated amplification (TMA) NAT screen, REDUC Part A; format: in vivo, human; settings: individual subjects 1101, 1102, 1103, 1105, 1106, 1107 = c1-c6, romidepsin 5 mg/m^2 i.v. days 0, 7, 14
[2] = system: HIV-1; assay: HIV transcription as cell-associated unspliced HIV-1 RNA in CD4+ T cells (digital droplet PCR), REDUC Part A; format: in vivo, human; settings: for CA US HIV RNA: individual subjects 1101, 1102, 1103, 1105, 1106, 1107 = c1-c6; for CA US HIV RNA / CA US HIV RNA, Mean: romidepsin 5 mg/m^2 i.v. days 0, 7, 14; for CA US HIV RNA, Mean: mean of subjects
Method: Part A of the clinical study contained three phases. […] Second, a viral reactivation phase of 3 weeks (visit 2 to visit 7) consisting of one cycle of romidepsin infusions at a dosing of 5 mg/m^2 administered intravenously over a 4 hour period. De-escalation down to 2.5 mg/m^2 was planned in case of dose-limiting toxicity was observed. Romidepsin was infused on days 0, 7, and 14. Third, a post-activation phase of ˜9 weeks (visit 8 to visit 11) to assess the effect of romidepsin on the size of latent HIV-1I reservoir.
HIV transcription was measured as copies of cell-associated unspliced HIV-1 RNA/106 CD4+ T cells using digital droplet PCR. CD4+ T-cells were isolated from PBMCs using Miltenyi Biotec negative bead separation kit (CD4 T cell isolation, #130-096-533) as described with LD separation columns, lysed (Lysis buffer from Qiagen DNA/RNA extraction kit), and stored ad −80° C. until extraction of RNA and DNA (Allprep isolation kit, Qiagen). Reverse transcription, amplification and quantitation of cell-associated unspliced HIV RNA from HIV patients was performed as follows. In summary, HIV unspliced RNA was detected on the BioRad QX100 droplet digital platform using a defined primer/probe set and related to total cell input by quantitation of the IPO8 (Importin 8) and TBP (Tata Binding Protein) gene transcription. A mixture of 11.5 μl patient extracted mRNA in nuclease-free dH, 1 μl 10 mM dNTP U1240 (Promega), 0.5 μl 3 μg/μl Random hexamers (Applied Biosystems) and 0.5 μl of 0.5 μg/μl Oligo(dT)12-18 Primer (Invitrogen) was prepared, incubated at 65° C. for 5 min, and then immediately on ice for 5 min. First-strand cDNA production was performed by adding a mixture of 4.0 μl 5× First Strand Buffer (Invitrogen), 1.0 μl 0.1M DTT (Invitrogen), 0.5 μl RNAseOUT RNAse inhibitor (40 U/μl, Invitrogen), 1.0 μl Superscript III Reverse Transcriptase (200 U/μl, Invitrogen) for a total reaction volume of 20 μl and incubating at 42° C. for 45 min, then 80° C. for 15 min in a PCR machine. The reaction was held at 4° C. or on ice until performing the downstream assay. […] To adjust for the total cellular input in each sample, relative copy numbers were normalized to two human endogenous control genes TBP PL (VIC) assay ID: Hs00183533_m1 and IPO8 (FAM) assay ID: Hs00427620_m1 (TaqMan gene expression assay, LifeTechnologies, Denmark). All HIV RT samples were run in six replicates while the reference genes were assayed in duplicate. The PCR reaction mixture was loaded into the BioRad QX-100 emulsification device fractionating each sample into 20,000 nanoliter-sized droplets following the manufacturer's instructions. PCR cycling conditions were as follows: 95° C. for 10 min, followed by 40 cycles of a 30 second denaturation at 95° C. followed by a 59° C. extension for 60 seconds and a final 10 minutes at 98° C. After cycling droplets were subsequently read automatically by the QX100 droplet reader (BioRad) and the data was analyzed with the QuantaSoft™ analysis software (BioRad).

[3] = visit 1 (day −21, pre-treatment)
[4] = visit 2A (day 0, pre-treatment)

## C/C=C1\NC(=O)[C@H]2CSSCC/C=C/[C@H](CC(=O)N[C@H](C(C)C)C(=O)N2)OC(=O)[C@H](C(C)C)NC1=O [romidepsin, (1S,4S,7Z,10S,16E,21R)-7-ethylidene-4,21-bis(1-methylethyl)-2-oxa-12,13-dithia-5,8,20,23-tetraazabicyclo[8.7.6]tricos-16-ene-3,6,9,19,22-pentone]
[1]; visit 5B (day 7 + 4 h)
  TMA assay, presence of HIV RNA: 1
[1]; visit 6 (day 10)
  TMA assay, presence of HIV RNA: 1
[1]; visit 7A (day 14)
  TMA assay, presence of HIV RNA: 1 (3×) and 0 (3×)
[1]; visit 7B (day 14 + 4 h)
  TMA assay, presence of HIV RNA: 1 (4×) and 0 (2×)
[1]; visit 8 (day 17)
  TMA assay, presence of HIV RNA: 1
[1]; visit 9 (day 21)
  TMA assay, presence of HIV RNA: 0 (4×) and 1 (2×)
[2]; 5 mg/m^2 romidepsin, patients on cART
  HIV reactivation: successfully able to reactivate HIV in 6 patients
[2]; after third infusion, p=0.03, Wilcoxon
  HIV-1 transcription (cell-associated un-spliced HIV-1 RNA), fold range increase from baseline: 2.4-5.0 fold
[2]; as a result of romidepsin infusion
  cell-associated un-spliced HIV RNA, change: significantly increased
[2]; [3]
  CA US HIV RNA: 5.4 HIV RNA copies/10^6 CD4+ T cel and 19.7 HIV RNA copies/10^6 CD4+ T cel and 9.7 HIV RNA copies/10^6 CD4+ T cel and 4.8 HIV RNA copies/10^6 CD4+ T cel and 15.9 HIV RNA copies/10^6 CD4+ T cel and 8.7 HIV RNA copies/10^6 CD4+ T cel
  CA US HIV RNA, Mean: 10.7 HIV RNA copies/10^6 CD4+ T cel
[2]; [4]
  CA US HIV RNA: 13.3 HIV RNA copies/10^6 CD4+ T cel and 16.8 HIV RNA copies/10^6 CD4+ T cel and 7.4 HIV RNA copies/10^6 CD4+ T cel and 14.5 HIV RNA copies/10^6 CD4+ T cel and 4.5 HIV RNA copies/10^6 CD4+ T cel
  CA US HIV RNA, Mean: 11.3 HIV RNA copies/10^6 CD4+ T cel
[2]; visit 2B (day 0 + 4 h)
  CA US HIV RNA: 23.0 HIV RNA copies/10^6 CD4+ T cel and 21.7 HIV RNA copies/10^6 CD4+ T cel and 15.7 HIV RNA copies/10^6 CD4+ T cel and 6.2 HIV RNA copies/10^6 CD4+ T cel and 18.7 HIV RNA copies/10^6 CD4+ T cel and 7.6 HIV RNA copies/10^6 CD4+ T cel
  CA US HIV RNA, Mean: 15.5 HIV RNA copies/10^6 CD4+ T cel
[2]; visit 3 (day 1)
  CA US HIV RNA: 16.7 HIV RNA copies/10^6 CD4+ T cel and 33.8 HIV RNA copies/10^6 CD4+ T cel and 9.5 HIV RNA copies/10^6 CD4+ T cel and 7.3 HIV RNA copies/10^6 CD4+ T cel and 29.4 HIV RNA copies/10^6 CD4+ T cel and 10.3 HIV RNA copies/10^6 CD4+ T cel
  CA US HIV RNA, Mean: 17.8 HIV RNA copies/10^6 CD4+ T cel
[2]; visit 4 (day 3)
  CA US HIV RNA: 26.4 HIV RNA copies/10^6 CD4+ T cel and 36.2 HIV RNA copies/10^6 CD4+ T cel and 7.5 HIV RNA copies/10^6 CD4+ T cel and 6.8 HIV RNA copies/10^6 CD4+ T cel and 12.1 HIV RNA copies/10^6 CD4+ T cel and 6.6 HIV RNA copies/10^6 CD4+ T cel
  CA US HIV RNA, Mean: 15.9 HIV RNA copies/10^6 CD4+ T cel
[2]; visit 5A (day 7)
  CA US HIV RNA: 12.5 HIV RNA copies/10^6 CD4+ T cel and 13.7 HIV RNA copies/10^6 CD4+ T cel and 11.3 HIV RNA copies/10^6 CD4+ T cel and 7.6 HIV RNA copies/10^6 CD4+ T cel and 18.9 HIV RNA copies/10^6 CD4+ T cel and 6.6 HIV RNA copies/10^6 CD4+ T cel
  CA US HIV RNA, Mean: 11.8 HIV RNA copies/10^6 CD4+ T cel
[2]; visit 5B (day 7 + 4 h)
  CA US HIV RNA: 33.7 HIV RNA copies/10^6 CD4+ T cel and 43.3 HIV RNA copies/10^6 CD4+ T cel and 24.8 HIV RNA copies/10^6 CD4+ T cel and 24.0 HIV RNA copies/10^6 CD4+ T cel and 45.2 HIV RNA copies/10^6 CD4+ T cel
  CA US HIV RNA, Mean: 34.2 HIV RNA copies/10^6 CD4+ T cel
[2]; visit 6 (day 10)
  CA US HIV RNA: 21.3 HIV RNA copies/10^6 CD4+ T cel and 29.0 HIV RNA copies/10^6 CD4+ T cel and 10.4 HIV RNA copies/10^6 CD4+ T cel and 9.1 HIV RNA copies/10^6 CD4+ T cel and 14.4 HIV RNA copies/10^6 CD4+ T cel and 7.9 HIV RNA copies/10^6 CD4+ T cel
  CA US HIV RNA, Mean: 15.3 HIV RNA copies/10^6 CD4+ T cel
[2]; visit 7A (day 14)
  CA US HIV RNA: 13.3 HIV RNA copies/10^6 CD4+ T cel and 24.2 HIV RNA copies/10^6 CD4+ T cel and 9.9 HIV RNA copies/10^6 CD4+ T cel and 6.0 HIV RNA copies/10^6 CD4+ T cel and 18.1 HIV RNA copies/10^6 CD4+ T cel
  CA US HIV RNA, Mean: 14.3 HIV RNA copies/10^6 CD4+ T cel
[2]; visit 7B (day 14 + 4 h)
  CA US HIV RNA: 36.5 HIV RNA copies/10^6 CD4+ T cel and 51.9 HIV RNA copies/10^6 CD4+ T cel and 21.0 HIV RNA copies/10^6 CD4+ T cel and 76.0 HIV RNA copies/10^6 CD4+ T cel and 20.5 HIV RNA copies/10^6 CD4+ T cel
  CA US HIV RNA, Mean: 41.2 HIV RNA copies/10^6 CD4+ T cel
[2]; visit 8 (day 17)
  CA US HIV RNA: 17.4 HIV RNA copies/10^6 CD4+ T cel and 17.8 HIV RNA copies/10^6 CD4+ T cel and 4.2 HIV RNA copies/10^6 CD4+ T cel and 14.9 HIV RNA copies/10^6 CD4+ T cel and 8.9 HIV RNA copies/10^6 CD4+ T cel
  CA US HIV RNA, Mean: 12.7 HIV RNA copies/10^6 CD4+ T cel
[2]; visit 9 (day 21)
  CA US HIV RNA: 16.4 HIV RNA copies/10^6 CD4+ T cel and 19.0 HIV RNA copies/10^6 CD4+ T cel and 4.6 HIV RNA copies/10^6 CD4+ T cel and 5.2 HIV RNA copies/10^6 CD4+ T cel and 11.1 HIV RNA copies/10^6 CD4+ T cel
  CA US HIV RNA, Mean: 11.3 HIV RNA copies/10^6 CD4+ T cel
[2]; visit 10 (day 56)
  CA US HIV RNA: 17.9 HIV RNA copies/10^6 CD4+ T cel and 25.0 HIV RNA copies/10^6 CD4+ T cel and 7.6 HIV RNA copies/10^6 CD4+ T cel and 6.2 HIV RNA copies/10^6 CD4+ T cel and 16.8 HIV RNA copies/10^6 CD4+ T cel and 9.3 HIV RNA copies/10^6 CD4+ T cel
  CA US HIV RNA, Mean: 13.8 HIV RNA copies/10^6 CD4+ T cel
[2]; visit 11 (day 84)
  CA US HIV RNA: 22.0 HIV RNA copies/10^6 CD4+ T cel and 32.7 HIV RNA copies/10^6 CD4+ T cel and 11.2 HIV RNA copies/10^6 CD4+ T cel and 8.0 HIV RNA copies/10^6 CD4+ T cel and 35.1 HIV RNA copies/10^6 CD4+ T cel and 12.2 HIV RNA copies/10^6 CD4+ T cel
  CA US HIV RNA, Mean: 20.2 HIV RNA copies/10^6 CD4+ T cel
